Reference: publication PMC5104769, “Concentration-Dependent Dual Mode of Zn Action at Serotonin 5-HT1A Receptors: In Vitro and In Vivo Studies” (Molecular neurobiology, 2015)

Tests used:
Sprague Dawley rats [1] = assay: Forced swim test (FST) in rats; format: in vivo, rat
Method: The test was carried out according to the method described previously [10]. On day one of the experiment, the animals were individually placed in plexiglass cylinders (40 cm in height, 18 cm in diameter), containing 25 cm of water maintained at 24–25 °C for a 15-min habituation period. After the rats were removed from the water, they were again placed in their home cages. On the second day, the rats were again placed in the cylinders, and the total duration of immobility was measured for a 5-min test period. Zn (1 or 2 mg Zn/ kg, given as Zn hydroaspartate) and 8-OH-DPAT (0.1 or 0.3 mg/kg) were administered alone or jointly 30 min before the test. WAY-100635 (0.1 mg/kg) was administered 15 min before the Zn treatment.

Body temperature in mice = format: in vivo, mouse
Method: The experiments were performed on male Albino Swiss mice (23-25 g) and Sprague Dawley rats (200-250 g) from Charles River, Germany as well as […]-flx-YFP mice from Jackson Labs, Bangor ME and the Hen lab, respectively. The animals were kept under standard laboratory conditions with respect to lighting (light phase 7:00-19:00) and temperature (19-21 °C). Food and water were freely available. Each experimental group consisted of eight to ten animals. All of the animals were experimentally naive and were used only once in each test. The experiments were performed during the light period (9:00-14:00 h). All of the procedures were conducted according to the guidelines of the National Institutes of Health Animal Care and Use Committee and were approved by the Ethics Committees of the Institute of Pharmacology, Polish Academy of Sciences in Krakow and the Animal Care Committee, University of Ottawa. […] Controls were treated with the appropriate diluent, which was indicated as VEH on the graphs and in the tables. […] The results were expressed as a change in body temperature with respect to the basal body temperature, which was measured at the beginning of the experiments.

Sprague Dawley rats [2] = assay: 5-HT behavioural syndrome (flat body posture, forepaw treading) in rats; format: in vivo, rat; conditions: VEH + 8-OH-DPAT 5 mg/kg
Method: (§1) The experiments were performed on male Albino Swiss mice (23–25 g) and Sprague Dawley rats (200–250 g) from Charles River, Germany as well as TPH2-Cre-ER^T2 x flx-5-HT1A-flx-YFP mice from Jackson Labs, Bangor ME and the Hen lab, respectively. The animals were kept under standard laboratory conditions with respect to lighting (light phase 7:00–19:00) and temperature (19–21 °C). Food and water were freely available. Each experimental group consisted of eight to ten animals. All of the animals were experimentally naive and were used only once in each test. The experiments were performed during the light period (9:00–14:00 h). All of the procedures were conducted according to the guidelines of the National Institutes of Health Animal Care and Use Committee and were approved by the Ethics Committees of the Institute of Pharmacology, Polish Academy of Sciences in Krakow and the Animal Care Committee, University of Ottawa.
Zn (all doses refer to mg Zn/kg) was given as either Zn hydroaspartate (Farmapol, Poland) or Zn chloride (Sigma-Aldrich) and was dissolved in 0.9 % NaCl and administered intraperitoneally (i.p.). 8-OH-DPAT and WAY-100635 were dissolved in aqua pro-injection and were administered subcutaneously (s.c.). Controls were treated with the appropriate diluent, which was indicated as VEH on the graphs and in the tables.
The experiments were conducted according to previously published procedure, with a modification to the ranked intensity scale. Briefly, the rats were individually placed in cages (30×25×25 cm) 5 min before tested compounds were injected. Forepaw treading (FT) and flat body posture (FBP) were scored using a ranked intensity scale, where 0=absent, 1=equivocal and 2=present. The Zn (2, 5, 7.5 and 11.5 mg Zn/kg, given as a Zn hydroaspartate)-induced behavioural syndrome was scored for each animal 3, 6, 9, 12 and 15 min after the Zn treatment. Each observation session lasted for 45 s. The maximum score, which was summed over 5 observation periods, was 10 for each symptom/rat. The effect of Zn on the behavioural syndrome induced by 8-OH-DPAT (5 mg/kg) was scored using the same scale. Zn was administered 60 min before 8-OH-DPAT, and the animals were scored 3, 6, 9, 12 and 15 min after the 8-OH-DPAT treatment.

Sprague Dawley rats [3] = assay: Lower lip retraction (LLR) in rats; format: in vivo, rat; conditions: for induction of LLR (in words): given alone: 8-OH-DPAT 1 mg/kg, Zn 2 and 5 mg/kg, WAY-100635 0.1 mg/kg
Method: The experiments were performed on male Albino Swiss mice (23-25 g) and Sprague Dawley rats (200-250 g) from Charles River, Germany as well as […]-flx-YFP mice from Jackson Labs, Bangor ME and the Hen lab, respectively. The animals were kept under standard laboratory conditions with respect to lighting (light phase 7:00-19:00) and temperature (19-21 °C). Food and water were freely available. Each experimental group consisted of eight to ten animals. All of the animals were experimentally naive and were used only once in each test. The experiments were performed during the light period (9:00-14:00 h). All of the procedures were conducted according to the guidelines of the National Institutes of Health Animal Care and Use Committee and were approved by the Ethics Committees of the Institute of Pharmacology, Polish Academy of Sciences in Krakow and the Animal Care Committee, University of Ottawa. […] Controls were treated with the appropriate diluent, which was indicated as VEH on the graphs and in the tables. LLR was assessed according to the method described by Berendsen et al., [20]. The rats were individually placed in cages (30×25×25 cm) and were scored three times, 15, 30 and 45 min after the administration of Zn as follows: 0=lower incisors not visible, 0.5=partly visible and 1=completely visible. Zn was administered at doses of 2 and 5 mg Zn/kg (given as Zn hydroaspartate, Farmapol, Poland). The maximum total score was 3/rat. In addition, the effects of Zn and WAY-100635 (0.1 mg/kg; […] Sigma) were tested.

Body temperature in rats = format: in vivo, rat; conditions: 8-OH-DPAT 5 mg/kg, vs saline group
Method: as §1, with “Ottawa. […]” for “Ottawa.”
The effects of Zn (2, 5, 7.5 and 11.5 mg Zn/kg for rats and 2 and 5 mg/kg for mice, given as a Zn hydroaspartate), 8-OH-DPAT (5 mg/kg) and WAY-100635 (0.1mg/kg) on rectal body temperature were recorded 30 and 60 min after their acute administration. The results were expressed as a change in body temperature with respect to the basal body temperature, which was measured at the beginning of the experiments.

[4] = molecular target: T1, human 5-HT1AR stably expressed in HEK293 cells (Homo sapiens, UniProt P08908); assay: Saturation binding of [3H]-8-OH-DPAT in the absence and presence of Zn; conditions: saturation binding
T1 construct: The full-length human 5HTR1A complementary DNA (cDNA); membranes prepared from the cells
T1 sequence (P08908 1-422): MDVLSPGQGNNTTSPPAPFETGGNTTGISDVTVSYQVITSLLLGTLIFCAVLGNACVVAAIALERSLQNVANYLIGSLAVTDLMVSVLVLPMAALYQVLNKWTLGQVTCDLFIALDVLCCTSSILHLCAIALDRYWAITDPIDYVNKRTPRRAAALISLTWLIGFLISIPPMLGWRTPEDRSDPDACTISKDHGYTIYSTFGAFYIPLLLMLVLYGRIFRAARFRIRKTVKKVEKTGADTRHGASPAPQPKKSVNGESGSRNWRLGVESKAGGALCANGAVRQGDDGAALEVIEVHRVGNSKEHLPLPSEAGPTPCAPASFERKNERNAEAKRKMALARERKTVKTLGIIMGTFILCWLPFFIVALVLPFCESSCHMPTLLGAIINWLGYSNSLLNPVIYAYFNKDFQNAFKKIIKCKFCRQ
Method: The full-length human 5HTR1A complementary DNA (cDNA), which was cloned into the mammalian expression vector pcDNA3.1(+), was obtained from the Missouri S&T cDNA Resource Center (www.cdna.org). The receptor cDNA was stably transfected into human embryonic kidney cells (HEK293, ATCC) with the use of Lipofectamine 2000 (Invitrogen).
Cell pellets were thawed and homogenized in 20 volumes of 50 mM Tris–HCl buffer (pH 7.7) containing 0.1 mM EDTA and 10 mM MgCl2, using an Ultra Turrax tissue homogenizer. The pellets were then centrifuged twice at 35,000g for 20 min at 4 °C, with incubation for 15 min at 37 °C in between centrifugations. Membranes were aliquoted in tubes. Membrane protein concentrations were determined using the Pierce™ Coomassie (Bradford) Protein Assay Kit, with bovine serum albumin (BSA) as a standard.
The incubation buffer consisted of 50 mM Tris–HCl (pH 7.7), 10 mM MgCl2, 10 mM pargyline and 0.1 % ascorbic acid. Radioligand binding assays were performed by incubating 30 μg of protein of the membrane suspension in 96-well microtitre plates for 60 min at room temperature with shaking, in a total volume of 200 μl. The binding reactions were stopped by filtration through GF/C Unifilter plates using a harvester (PerkinElmer). The plate filters were dried, and 20 μl of Ultima Gold MV (PerkinElmer) was added. Radioactivity was measured using a MicroBeta TriLux counter (PerkinElmer).
All experiments were performed in triplicate, and the results were obtained from at least three independent experiments. The data are expressed as the mean±S.D. (standard deviation). The experimental data were analysed using GraphPad Prism 5.1 for Windows (GraphPad Software, San Diego California USA, www.graphpad.com).

Row | Structure (SMILES) | immobility time in the FST (Sprague Dawley rats [1]; 8-OH-DPAT 0.1 mg/kg) | immobility time in the FST (Sprague Dawley rats [1]; 8-OH-DPAT 0.3 mg/kg) | change in body temperature (Body temperature in mice; 8-OH-DPAT 5 mg/kg, vs saline group) | behavioural score FBP (B) 8-OH-DPAT (Sprague Dawley rats [2]) | behavioural score FT (B) 8-OH-DPAT (Sprague Dawley rats [2]) | Mean LLR score (B) 8-OH-DPAT 1 mg/kg (Sprague Dawley rats [3]; VEH pretreatment + 8-OH-DPAT 1 mg/kg) | induction of LLR (in words) (Sprague Dawley rats [3]) | change in body temperature (Body temperature in rats) | effect on Zn-induced decrease in immobility time (Sprague Dawley rats [1]; WAY-100635 0.1 mg/kg 15 min before Zn) | behaviour in the FST (Sprague Dawley rats [1]; WAY-100635 0.1 mg/kg given alone) | effect of pretreatment on Zn-induced decrease in body temperature (Body temperature in mice; WAY-100635 0.1 mg/kg s.c. 15 min before Zn) | Mean LLR score (B) 8-OH-DPAT 1 mg/kg (Sprague Dawley rats [3]; WAY 100635 0.1 mg/kg 45 min before 8-OH-DPAT 1 mg/kg) | Mean LLR score (A) VEH (Sprague Dawley rats [3]; WAY 100635 0.1 mg/kg s.c. alone, max score 3/rat) | effect on LLR induced by 8-OH-DPAT (in words) (Sprague Dawley rats [3]; Zn 2 and 5 mg/kg or WAY-100635 0.1 mg/kg before 8-OH-DPAT 1 mg/kg) | Bmax of [3H]8-OH-DPAT ([4]; Zn2+ 0 μM) [pM/mg prot] | Bmax of [3H]8-OH-DPAT ([4]; Zn2+ 10 μM) [pM/mg prot] | Bmax of [3H]8-OH-DPAT ([4]; Zn2+ 10 μM, listed as [^3H]8-OH-DPAT) [pM/mg prot] | Bmax of [3H]8-OH-DPAT ([4]; Zn2+ 100 μM) [pM/mg prot] | Bmax of [3H]8-OH-DPAT ([4]; Zn2+ 500 μM) [pM/mg prot] | Bmax of [3H]8-OH-DPAT ([4]; Zn2+ 1000 μM) [pM/mg prot]
1 | CCCN(CCC)C1CCc2cccc(O)c2C1 (stereo not drawn) [8-OH-DPAT, 8-Hydroxy-2-(di-n-propylamino)tetralin, reference compound] | not 0.1 mg/kg (p>0.05) decreased the immobility time | decreased the immobility time | significant decrease in body temperature | 7.83±0.7 | 7.5±0.6 | 2.25±0.46 | induced LLR | significant decrease in body temperature |  |  |  |  |  |  |  |  |  |  |  | 
2 | COc1ccccc1N1CCN(CCN(C(=O)C2CCCCC2)c2ccccn2)CC1 [WAY-100635, N-[2[4-(2-methoxyphenyl)-1-piperazinyl]ethyl]-N-(2-pyridyl)cyclohexanecarboxamide, reference compound] |  |  |  |  |  |  | did not evoke LLR |  | antagonized the Zn-induced decrease in the immobility time | did not change the behaviour of the animals | abolished the effect induced by Zn | 0.67±0.76 | 0.0±0.0 | blocked the LLR induced by 8-OH-DPAT |  |  |  |  |  | 
3 | CCCN(CCC)C1CCc2cccc(O)c2C1 (stereo not drawn) [[^3H]-8-OH-DPAT] |  |  |  |  |  |  |  |  |  |  |  |  |  |  | 4.5±0.3 | 5.8±0.7 | 5.8±0.7 | 6.2±2.0 | 4.7±0.7 | 4.0±0.6
